Reference: ChEMBL document CHEMBL4184110 (Bioorg Med Chem Lett, 2018)
Converted amounts (≈) assume the structure as drawn.

Experiments:
Vitamin D3 receptor [1] = biological target: T1, Vitamin D3 receptor (Homo sapiens, UniProt P11473); assay: Antagonist activity at CMV-fused VDR (unknown origin) expressed in HEK293T cells assessed as reduction in 24-hydroxylase promoter mediated transcriptional activity by luciferase reporter gene assay; type: cell-based
T1 sequence (P11473 whole entry): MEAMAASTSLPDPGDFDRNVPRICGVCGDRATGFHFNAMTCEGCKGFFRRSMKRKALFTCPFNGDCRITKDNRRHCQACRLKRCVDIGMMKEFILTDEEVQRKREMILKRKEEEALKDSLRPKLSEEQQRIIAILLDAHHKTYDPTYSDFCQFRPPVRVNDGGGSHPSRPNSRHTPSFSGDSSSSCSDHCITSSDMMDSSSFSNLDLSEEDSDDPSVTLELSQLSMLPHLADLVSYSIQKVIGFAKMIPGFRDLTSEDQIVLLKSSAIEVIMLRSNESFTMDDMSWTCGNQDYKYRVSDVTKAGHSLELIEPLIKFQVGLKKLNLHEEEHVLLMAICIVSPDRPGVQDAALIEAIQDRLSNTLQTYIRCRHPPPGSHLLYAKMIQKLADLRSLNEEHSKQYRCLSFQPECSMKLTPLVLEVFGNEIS

[2] = biological target: T2, Peroxisome proliferator-activated receptor delta (Homo sapiens, UniProt Q03181); assay: Transactivation of CMV-fused PPARdelta-LBD-GAL4-DBD (unknown origin) expressed in HEK293T cells by luciferase reporter gene assay; type: cell-based
T2 sequence (Q03181 whole entry): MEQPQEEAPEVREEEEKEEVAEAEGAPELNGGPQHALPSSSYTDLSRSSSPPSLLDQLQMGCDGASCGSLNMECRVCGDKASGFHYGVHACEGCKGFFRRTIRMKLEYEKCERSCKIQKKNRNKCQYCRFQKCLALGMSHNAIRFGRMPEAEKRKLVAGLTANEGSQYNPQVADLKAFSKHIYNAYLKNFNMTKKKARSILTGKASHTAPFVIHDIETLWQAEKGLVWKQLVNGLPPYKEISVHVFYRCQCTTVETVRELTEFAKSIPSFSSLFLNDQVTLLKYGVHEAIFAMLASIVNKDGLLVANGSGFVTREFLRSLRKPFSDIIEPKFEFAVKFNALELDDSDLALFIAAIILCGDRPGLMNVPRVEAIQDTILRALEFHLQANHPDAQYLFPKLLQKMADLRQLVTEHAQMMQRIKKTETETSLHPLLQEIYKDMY

Vitamin D3 receptor [3] = biological target: T1, Vitamin D3 receptor; assay: Antagonist activity at VP16-fused VDR-LBD (unknown origin) expressed in HEK293T cells assessed as inhibition of ligand-induced GAL4-fused SRC1 coactivator recruitment by two-hybrid luciferase reporter gene assay; type: cell-based
Vitamin D3 receptor [4] = biological target: T1, Vitamin D3 receptor; assay: Agonist activity at VDR-LBD (unknown origin) assessed as recruitment of alexa fluor 647-labeled SRC2-3 after 30 mins by fluorescence polarization assay
Vitamin D3 receptor [5] = biological target: T1, Vitamin D3 receptor; assay: Antagonist activity at VDR-LBD (unknown origin) assessed as inhibition of LG190178-induced recruitment of alexa fluor 647-labeled SRC2-3 after 30 mins by fluorescence polarization assay
HEK-293T = assay: Cytotoxicity against HEK293T cells assessed as decrease in cell viability at 100 uM after 18 hrs by Cell Titer-Glo based luminescence assay relative to control; conditions: human
[6] = Aqueous solubility of the compound in DMSO at 500 uM by filter based assay; type: physicochemical
[7] = biological target: T3, Peroxisome proliferator-activated receptor delta (Homo sapiens) (UniProt Q03181); assay: Transactivation of CMV-fused PPARdelta-LBD-GAL4-DBD (unknown origin) expressed in HEK293T cells at 100 uM by luciferase reporter gene assay relative to GW0742; type: cell-based
T3 sequence (whole entry): T2 sequence (Q03181 whole entry)

Row | SMILES | IC50 (Vitamin D3 receptor [1]) | EC50 [2] | IC50 (Vitamin D3 receptor [3]) [µM] | EC50 (Vitamin D3 receptor [4]) | IC50 (Vitamin D3 receptor [5]) | Activity (HEK-293T) | solubility kinetic at 500 µM [6] [µM] | IC50 (Vitamin D3 receptor [1]; read-out: IC50) [µM] | EC50 ([2]; read-out: EC50) [µM] | Activity [7] [%]
1 | COc1ccccc1-c1nc(C)c(COc2ccccc2C(=O)O)o1 | Not Active | Not Active | > 80 | Not Active | Not Active | 4.1% | 402 (≈ 136 µg/mL) |  |  | 
2 | COc1cccc(-c2nc(C)c(COc3ccc(C(=O)O)cc3)o2)c1 |  |  | > 80 | Not Active | Not Active | 27.2% | 457 (≈ 155 µg/mL) | > 100 | 2.6 | 2.1
3 | COc1ccccc1-c1nc(C)c(COc2ccc(CCC(=O)O)cc2)o1 |  |  | > 100 | Not Active | Not Active | 2.1% | 400 (≈ 147 µg/mL) | > 80 | 4.6 | 30
4 | COC(=O)CCc1ccc(OCc2oc(-c3ccccc3OC)nc2C)cc1 |  | Not Active | 13.6 | Not Active | Not Active | 79.9% | 62.6 (≈ 23.9 µg/mL) | 10.1 |  | 
5 | COC(=O)c1ccc(OCc2oc(-c3ccccc3OC)nc2C)cc1 |  | Not Active | 17.9 | Not Active | Not Active | 81.5% | 62.6 (≈ 22.1 µg/mL) | 4.85 |  | 
6 | COc1cccc(-c2nc(C)c(COc3ccccc3C(=O)O)o2)c1 |  | Not Active | > 33 | Not Active | Not Active | 37.3% | 264 (≈ 89.6 µg/mL) | 40.4 |  | 
7 | COC(=O)CCc1ccc(OCc2oc(-c3cccc(OC)c3)nc2C)cc1 |  |  | 6.7 | Not Active | Not Active | 67.6% | 38.2 (≈ 14.6 µg/mL) | 2.88 | 1.09 | 7.7
8 | COC(=O)c1cccc(OCc2oc(-c3cccc(OC)c3)nc2C)c1 |  | Not Active | 17.1 | Not Active | Not Active | 59.3% | 24.1 (≈ 8.52 µg/mL) | 5.56 |  | 
9 | COc1cccc(-c2nc(C)c(COc3ccc(CCC(=O)O)cc3)o2)c1 |  |  | 26.7 | Not Active | Not Active | 41.2% | 234 (≈ 86.1 µg/mL) | 3.35 | 1.4 | 13.7
10 | COc1ccccc1-c1nc(C)c(COc2cccc(C(=O)O)c2)o1 | Not Active |  | > 100 | Not Active | Not Active | Non-Toxic | 423 (≈ 144 µg/mL) |  | 0.88 | 22
11 | COc1ccccc1-c1nc(C)c(COc2ccc(C(=O)O)cc2)o1 | Not Active |  | > 80 | Not Active | Not Active | Non-Toxic | 460 (≈ 156 µg/mL) |  | 8.7 | 16
12 | COC(=O)c1ccccc1OCc1oc(-c2ccccc2OC)nc1C |  | Not Active | 20.2 | Not Active | Not Active | 54.1% | 185 (≈ 65.5 µg/mL) | 3.25 |  | 
13 | COc1cccc(-c2nc(C)c(COc3ccc(CC(=O)O)cc3)o2)c1 |  |  | 27.7 | Not Active | Not Active | 34.5% | 410 (≈ 145 µg/mL) | 3.6 | 1.8 | 8.5
14 | COc1ccccc1-c1nc(C)c(COc2ccc(CC(=O)O)cc2)o1 | Not Active |  | > 80 | Not Active | Not Active | Non-Toxic | 436 (≈ 154 µg/mL) |  | 11 | 48
15 | COc1cccc(-c2nc(C)c(COc3cccc(C(=O)O)c3)o2)c1 |  | Not Active | 33.1 | Not Active | Not Active | 23.9% | 498 (≈ 169 µg/mL) | 33.2 |  | 
16 | COC(=O)c1ccccc1OCc1oc(-c2cccc(OC)c2)nc1C |  | Not Active | 15.4 | Not Active | Not Active | 94.6% | 52.8 (≈ 18.7 µg/mL) | 6.75 |  | 
